Measurements taken from PubChem BioAssay AID1552 (Sanford-Burnham Center for Chemical Genomics, 2009).
The source made the active and inactive calls. No rule for the calls is given here.

What follows are compounds tested against Ubiquitin-conjugating enzyme E2 N (Homo sapiens) (UniProt P61088) (assay: NMR detection of UBE2N ligand binding – biophysical, purified protein (AID 1552)). Settings: NMR binding to purified UBE2N.
Sequence of Ubiquitin-conjugating enzyme E2 N (Homo sapiens) (P61088 whole entry, looked up): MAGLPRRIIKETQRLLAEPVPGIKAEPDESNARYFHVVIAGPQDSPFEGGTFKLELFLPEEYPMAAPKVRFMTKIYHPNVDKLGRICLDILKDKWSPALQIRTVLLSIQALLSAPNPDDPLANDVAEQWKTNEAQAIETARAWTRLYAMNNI

Row | Structure (SMILES) | Kd
1 | CC(CC(O)C1OC1(C)C)[C@@H]1CCC2(C)C3=CCC4C(C)(C)C(=O)CCC4(C)C3CC[C@@]12C (some centres not stated) | > 4 mM (inactive)
2 | CSc1nc(-c2ccco2)nn1S(C)(=O)=O | > 4 mM (inactive)
3 | O=C(NCN1CCOCC1)c1cccnc1 | > 4 mM (inactive)
4 | COC1CC(O[C@H]2CC[C@]3(C=O)C4CC[C@]5(C)C(C6=CC(=O)OC6)CC[C@]5(O)C4CC[C@]3(O)C2)OC(C)C1O (some centres not stated) | > 4 mM (inactive)
5 | O=C(C1CCCCC1)N1CCN(c2ccccc2F)CC1 | > 4 mM (inactive)
6 | O=c1cc(O)nc(SCc2ccccc2)[nH]1 | > 4 mM (inactive)
7 | CC1(NC(=O)NCc2ccccc2)CCS(=O)(=O)C1 (configuration not stated) | > 4 mM (inactive)
8 | COc1cc(NC(=O)c2ccccc2)c(C)cc1N | > 4 mM (inactive)
9 | COC(=O)[C@@H]1C(O)CC[C@H]2CN3CCc4c([nH]c5ccccc45)[C@@H]3C[C@@H]21 (some centres not stated) | > 4 mM (inactive)
10 | O=C(O)Cc1noc2ccccc12 | > 4 mM (inactive)
11 | CN(C)CCCN1CNC(=S)NC1 | > 4 mM (inactive)
12 | O=C1CN(C(=O)c2ccccc2)c2ccccc2N1 | > 4 mM (inactive)
13 | O=C(NCc1ccccc1Br)c1ccco1 | > 4 mM (inactive)
14 | CC(C)c1ccc2c(c1O)CC[C@H]1C3=C(CC[C@]21C)C(=O)OC3 | > 4 mM (inactive)
15 | OC1CSc2ncnn2C1 (configuration not stated) | > 4 mM (inactive)
16 | COc1ccc2nc(NC(=O)c3cnccn3)sc2c1 | > 4 mM (inactive)
17 | CC(=O)Nc1ccn(-c2ccccc2)n1 | > 4 mM (inactive)
18 | CCNC(=S)N1CCCC(C(N)=O)C1 (configuration not stated) | > 4 mM (inactive)
19 | Cc1ccc2cccc(OC(=O)N3CCCC3)c2n1 | > 4 mM (inactive)
20 | O=C(Nn1cnnc1)c1csc2c1CCCC2 | > 4 mM (inactive)
21 | Cc1occc1C(=O)NCc1ccccn1 | > 4 mM (inactive)
22 | O=c1nc(C(F)(F)F)nc2ccccn12 | > 4 mM (inactive)
23 | C[n+]1ccn(C/C(N)=N/O)c1 | > 4 mM (inactive)

Row | Structure (SMILES) | Kd
24 | CC(=O)O[C@@H]1CC2C(C)(C)C(=O)[C@@H]3O[C@@H]3[C@]2(C)C2CC[C@]3(C)C(=CC(=O)O[C@H]3c3ccoc3)[C@@]21C (some centres not stated) | > 4 mM (inactive)
25 | NC(=O)C1(c2ccccc2)CCOCC1 | > 4 mM (inactive)
26 | Cc1nc(-c2cccc(C(=O)O)c2)cs1 | > 4 mM (inactive)
27 | CC1(c2ccncc2)NC(=O)NC1=O (configuration not stated) | > 4 mM (inactive)
28 | Cc1ccc(Nc2nc(N)nc(CC#N)n2)cc1 | > 4 mM (inactive)
29 | OCc1ccncc1 | > 4 mM (inactive)
30 | Nc1cccc(NC(=O)c2ccco2)c1 | > 4 mM (inactive)
31 | O=c1c2ccccc2nc(-c2ccco2)n1-c1nccs1 | > 4 mM (inactive)
32 | c1ccc(Cn2cccc2)nc1 | > 4 mM (inactive)
33 | Cc1nnc(Nc2ccc(S(N)(=O)=O)cc2)[nH]c1=O | > 4 mM (inactive)
34 | C=CCSc1[nH]c(=O)cc(C)c1C(N)=O | > 4 mM (inactive)
35 | Cc1[nH]c2ccccc2c1C=Nn1cncn1 | > 4 mM (inactive)
36 | CC12CCC(O)CC1CCC1C2[C@H](O)CC2(C)C(C3=CC(=O)OC3)CCC12O (some centres not stated) | > 4 mM (inactive)
37 | Cc1ccccc1N1CCN(C(=O)C2CCCCC2)CC1 | > 4 mM (inactive)
38 | NC(=O)C1CCN(C(=O)c2ccccc2F)CC1 | > 4 mM (inactive)
39 | O=C1CNC(=O)N1c1cccc(Cl)c1 | > 4 mM (inactive)
40 | Cc1nnc(SCc2ccc(F)cc2)s1 | > 4 mM (inactive)
41 | Cc1nc(SCC(=O)c2c[nH]c3ccccc23)n[nH]1 | > 4 mM (inactive)
42 | O=C(O)c1ccc2c(c1)OCCCO2 | > 4 mM (inactive)
43 | OCC1Cc2ccccc2N1 (configuration not stated) | > 4 mM (inactive)
44 | O=c1ccc2c([nH]1)CCCC2 | > 4 mM (inactive)
45 | COC(=O)/C(=C1\OC(=O)C(c2ccccc2)C1=O)c1ccccc1 (configuration not stated) | > 4 mM (inactive)
46 | CC1(C)CC(=O)c2cnn(-c3nc4ccccc4[nH]3)c2C1 | > 4 mM (inactive)

Row | Structure (SMILES) | Kd
47 | Cc1ccc2c(c1)CCCN2C(=O)c1ccncc1 | > 4 mM (inactive)
48 | O=C(O)C(O)C(O)C(O)C(O)C(=O)O (configuration not stated) | > 4 mM (inactive)
49 | OCc1nc2ccccc2s1 | > 4 mM (inactive)
50 | CC(=O)Nc1cccc(NC(=O)c2ccco2)c1 | > 4 mM (inactive)
51 | CC1=CCc2c(cc3oc(C)cc(=O)c3c2O)OC1 | > 4 mM (inactive)
52 | CN1C(=O)/C(=C\c2ccc[nH]2)SC1=S | > 4 mM (inactive)
53 | COC(=O)C1Cc2ccccc2N1 (configuration not stated) | > 4 mM (inactive)
54 | OCc1cc(-c2cccs2)on1 | > 4 mM (inactive)
55 | CC(=O)O[C@H]1C[C@@H](OC(C)=O)C(C)(C)C2C[C@@H](OC(C)=O)[C@]3(C)C([C@H](OC(C)=O)C[C@@]4(C)[C@H](c5ccoc5)OC(=O)[C@H]5O[C@]543)[C@]21C (some centres not stated) | > 4 mM (inactive)
56 | Cc1cc(NC(=O)c2cccc(N3C(=O)CCC3=O)c2)no1 | > 4 mM (inactive)
57 | Nc1cc(C(=O)O)ccc1N1CCCCCC1 | > 4 mM (inactive)
58 | NC(=O)C1CCN(c2nccc(C(F)(F)F)n2)CC1 | > 4 mM (inactive)
59 | COC(=O)C1=CO[C@@H](O[C@@H]2O[C@H](CO)[C@@H](O)[C@H](O)[C@H]2O)[C@@H]2[C@@H](C)[C@@H](O)C[C@H]12 | > 4 mM (inactive)
60 | Brc1cccc(-c2nnco2)c1 | > 4 mM (inactive)
61 | C=CC(C1=CC(=O)C(OC)=CC1=O)c1ccccc1 (configuration not stated) | > 4 mM (inactive)
62 | O=C(O)c1ccc(Nc2nncc(=O)[nH]2)cc1 | > 4 mM (inactive)
63 | c1cc2c(cc1[C@H]1OC[C@H]3[C@@H]1CO[C@H]3c1ccc3c(c1)OCO3)OCO2 | > 4 mM (inactive)
64 | Nc1cccc(S(=O)(=O)N2CCCCC2)c1 | > 4 mM (inactive)
65 | NS(=O)(=O)c1ccc(F)cc1 | > 4 mM (inactive)
66 | C=CCc1ccc(O)c(OC)c1 | > 4 mM (inactive)
67 | O=C1CCC(C(=O)NCc2ccc(Cl)cc2)N1 (configuration not stated) | > 4 mM (inactive)
68 | Cn1cnc2c(cnn2-c2ccccc2)c1=O | > 4 mM (inactive)
69 | CNS(=O)(=O)c1cccs1 | > 4 mM (inactive)

Row | Structure (SMILES) | Kd
70 | O=C(Nc1ccc2c(c1)OCO2)c1ccc(=O)[nH]n1 | > 4 mM (inactive)
71 | COc1ccc2c(c1)[n+](=O)c(C(C)=O)c(C)n2[O-] | > 4 mM (inactive)
72 | CC(=O)c1cccc(N=C2NC(=O)CS2)c1 | > 4 mM (inactive)
73 | N[C@@H](Cc1ccc(O)c(O)c1)C(=O)O | > 4 mM (inactive)
74 | O=C(CC1NCCNC1=O)Nc1ccccc1 (configuration not stated) | > 4 mM (inactive)
75 | NC(=O)c1ccc(NC(=O)c2ccco2)cc1 | > 4 mM (inactive)
76 | Cc1cc(=O)c2ccccc2n1CC(N)=O | > 4 mM (inactive)
77 | COc1cc2c3cc1Oc1c(OC)c(OC)cc4c1[C@@H](Cc1cccc(c1)Oc1ccc(c(O)c1)C[C@@H]3N(C)CC2)N(C)CC4 | > 4 mM (inactive)
78 | O=C1CCC(=O)N1CNc1ccccc1 | > 4 mM (inactive)
79 | COc1c(C(=O)N2CCCC2)ccc2ccccc12 | > 4 mM (inactive)
80 | COC(=O)C[C@@H]1C2(C)C(=O)[C@@H](CC3=C4C=C(OC)O[C@@H](c5ccoc5)[C@]4(C)CCC32)[C@H](O)C1(C)C (some centres not stated) | > 4 mM (inactive)
81 | Cc1cc(Oc2ccccc2)nc(N)n1 | > 4 mM (inactive)
82 | CC(C)=CCc1c(O)cc2oc(C)cc(=O)c2c1O | > 4 mM (inactive)
83 | Cc1ccc(C)n1NC(=O)c1cccs1 | > 4 mM (inactive)
84 | Nc1ncnc(NCCO)c1[N+](=O)[O-] | > 4 mM (inactive)
85 | C[C@@H]1CC[C@@]2(OC1)O[C@H]1CC3C4CC[C@H]5C[C@@H](O)CC[C@]5(C)C4CC[C@]3(C)[C@H]1[C@@H]2C (some centres not stated) | > 4 mM (inactive)
86 | CC(=O)OC1CCC2(C)C3CC(=O)C4(C)C(CC5OC6(CCC(C)CO6)[C@@H](C)C54)C3CC[C@H]2C1 (some centres not stated) | > 4 mM (inactive)
87 | CCCCCC(=O)Cc1cc(O)cc(O)c1C(=O)Oc1cc(CC(=O)CCCCC)c(C(=O)O)c(OC)c1 | > 4 mM (inactive)
88 | CN(c1ccc(C(=O)N2CCCCC2)cc1)S(C)(=O)=O | > 4 mM (inactive)
89 | CC1(C)C(=O)CC[C@@]2(C)C1C[C@@H](O)[C@@]1(C)C3=CC(=O)O[C@@H](c4ccoc4)[C@]3(C)CCC21 (some centres not stated) | > 4 mM (inactive)
90 | CS(=O)(=O)N1CCN(C(=O)c2ccccc2F)CC1 | > 4 mM (inactive)
91 | COc1c2ccoc2cc2oc(C)cc(=O)c12 | > 4 mM (inactive)
92 | O=C(NCO)c1ccc([N+](=O)[O-])cc1 | > 4 mM (inactive)

Row | Structure (SMILES) | Kd
93 | Cc1cccnc1NC1=NCC(C)S1 (configuration not stated) | > 4 mM (inactive)
94 | O=C(O)/C=C(\CC(=O)O)C(=O)O | > 4 mM (inactive)
95 | COc1ccc(C(=O)CC(=O)O)c2c1C=CC(C)(C)O2 | > 4 mM (inactive)
96 | S=C(CN1CCCC1=S)N1CCOCC1 | > 4 mM (inactive)
97 | O=C(Cc1ccc(F)cc1)Nc1ncccn1 | > 4 mM (inactive)
98 | COc1ccc(-c2coc3c(OC)c(OC)cc(OC)c3c2=O)cc1 | > 4 mM (inactive)
99 | COc1ccc([C@H]2COc3c(ccc(O)c3OC)C2)c(OC)c1O | > 4 mM (inactive)
100 | OCC(O)Cc1ccc2c(c1)OCO2 (configuration not stated) | > 4 mM (inactive)
101 | CC(=O)O[C@@H]1CC2C(C)(C)C(=O)C=C[C@]2(C)C2CC[C@@]3(C)[C@H](c4ccoc4)OC(=O)[C@H]4O[C@]43[C@@]21C (some centres not stated) | > 4 mM (inactive)
102 | CN(C)c1ccc(C2CC(=O)CC(=O)C2)cc1 | > 4 mM (inactive)
103 | O=C1Nc2ccc(S(=O)(=O)NCCO)c3cccc1c23 | > 4 mM (inactive)
104 | O=C1CN(C(=O)c2ccccc2F)c2ccccc2N1 | > 4 mM (inactive)
105 | O=[N+]([O-])c1ccc2c(c1)N([O-])C1(CCCCC1)[N+]2=O | > 4 mM (inactive)
106 | O=C1NC(=O)C(=Cc2cccs2)C(=O)N1 | > 4 mM (inactive)
107 | CC(=O)C1=C(O)C(=O)NC1c1ccccc1 (configuration not stated) | > 4 mM (inactive)
108 | C/C=C1\[C@H]2C=C(C)C[C@]1(N)c1ccc(=O)[nH]c1C2 | > 4 mM (inactive)
109 | O=C(/C=C/C=C/c1ccc2c(c1)OCO2)N1CCCCC1 | > 4 mM (inactive)
110 | Cc1occc1C(=O)Nc1nnc(-c2ccncc2)s1 | > 4 mM (inactive)
111 | COc1c(-c2coc3cc4c(cc3c2=O)CC(OC(C)=O)C(C)(C)O4)ccc2c1C=CC(C)(C)O2 (configuration not stated) | > 4 mM (inactive)
112 | CCn1nccc1C(=O)Nc1ccc(Cl)cc1Cl | > 4 mM (inactive)
